Data on 5 molecules can be found in patent publication US8883438B2, “Method for diagnosing cell proliferation disorders having a neoactive mutation at residue 97 of isocitrate dehydrogenase 1” (Agios Pharmaceuticals, Inc., priority 2009, dated 2014).

In series [1] the target is T1, IDH1 G97D (Homo sapiens, UniProt O75874, G97D).
T1 construct: Oligo nucleotides were designed to PCR out the coding region of IDH1 with NdeI at the 5′ end and XhoI at the 3′; Ser-Leu-Glu junction (stop codon changed to Ser, then Leu-Glu); made in house; host or cells: E. coli Rosetta
T1 sequence (O75874 whole entry G97D): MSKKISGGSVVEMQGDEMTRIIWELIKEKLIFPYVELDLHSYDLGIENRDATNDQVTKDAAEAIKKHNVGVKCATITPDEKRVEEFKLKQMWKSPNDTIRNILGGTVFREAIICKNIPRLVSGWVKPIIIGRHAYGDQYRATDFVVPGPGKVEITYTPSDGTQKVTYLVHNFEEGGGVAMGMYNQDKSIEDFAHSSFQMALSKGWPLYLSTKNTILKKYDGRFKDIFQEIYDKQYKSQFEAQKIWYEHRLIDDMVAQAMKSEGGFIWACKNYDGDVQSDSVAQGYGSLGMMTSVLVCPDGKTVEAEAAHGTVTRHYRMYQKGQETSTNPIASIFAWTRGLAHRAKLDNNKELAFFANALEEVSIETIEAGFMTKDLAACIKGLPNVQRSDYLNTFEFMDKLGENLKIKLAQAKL
In words: IDH1 G97D inhibition assay (NADPH/aKG, diaphorase/resazurin fluorescence readout). The class given is biochemical. As to conditions: 50 minutes at room temperature. As to the method: Assays were conducted in a standard 384-well plate in a reaction volume of 76 uL assay buffer (150 mM NaCl, 10 mM MgCl2, 20 mM Tris pH 7.5, 0.05% bovine serum albumin, 2 mM beta-mercaptoethanol) as follows: To 25 uL of substrate mix (4 uM NADPH, 1 mM aKG), 1 uL of test compound in DMSO was added. The plate was centrifuged briefly, and then 25 ul of enzyme mix was added (0.1 ug/mL ICDH1 G97D) followed by a brief centrifugation and shake at 100 RPM. The reaction was incubated for 50 minutes at room temperature, then 25 ul of detection mix (30 uM resazurin, 36 ug/ml diaphorase) was added, and the mixture further incubated for 5 minutes at room temperature. The activity readout as a result of the conversion of resazurin to resorufin was detected by fluorescent spectroscopy at excitation 544 nm and emission 590 nm (c/o 590 nm).
(Alamar Blue is a resazurin reagent that responds to reducing activity.)

Series [2] relates to glioblastoma multiforme. As to conditions: persons newly diagnosed with glioblastoma multiforme; cited from earlier work.

For `O=C1/C(=C/c2ccc(F)cc2)C(CSc2ccc(Cl)cc2)=NN1c1nc2ccccc2s1`, in series [1], the IC50 lay within 1 to 5 µM.
Still for that read-out and setting: the value for `N#C/C(=C\c1ccc(-c2cc([N+](=O)[O-])ccc2O)o1)c1nc2ccccc2[nH]1` was 1 to 5 µM; that for `CCCCC1=NN2C(=N)/C(=C/c3ccc(-c4ccc([NH2+][O-])cc4Cl)o3)C(=O)N=C2S1` was 1 to 5 µM.
`Cn1nnc2c(C(N)=O)ncn2c1=O` [temozolomide, Temozolomide]: in series [2], the tolerability result was “well tolerated”.
The molecule `O=C1NC(=S)S/C1=C\c1ccc(-c2ccc(N3CCOCC3)c([N+](=O)[O-])c2)o1` showed an IC50 in series [1] of 5 to 10 µM.

A word on the IC50: it is the concentration that gives 50% inhibition. A lower IC50 goes with greater potency.
